Assay results: ChEMBL document CHEMBL2094269, “WEHI/Eskitis Trypanosoma b. brucei screening data”
Where “and” joins values, the source holds several entries; their conditions need not be identical. Equal values may be shown once.

What was measured:
[1] = DNDI: Cytotoxicity against human MRC-5 lung fibroblast cells.; conditions: IC50
[2] = tested on: Trypanosoma brucei brucei; assay: microbe, parasite or virus in culture; format: functional, organism-based, STIB 795
Description: DNDI: Inhibition of Human African Trypanosomiasis (HAT), STIB 795, in vitro

Row | SMILES | IC50 ([2]; Trypanosoma brucei, STIB 795) | IC50 [2] | IC50 [1]
1 | NCCCCCOC(c1ccc(F)cc1)c1ccc(F)cc1 | 5.53 µM |  | > 41.7 µM
2 | CN1CCN(C2Cc3ccc(F)cc3Sc3ccc(O)cc32)CC1 (stereo not given) | 2.61 µM |  | > 41.7 µM
3 | Cc1cc(C(=O)N/N=C/c2c(O)ccc3ccccc23)c2ccccc2n1 | 5.24 µM |  | > 4.17 µM
4 | Cc1cc(C)c2nc(C)cc(Nc3cccc(O)c3)c2c1 | 4.93 µM |  | > 20.8 µM
5 | Cc1cc(C)nc(NC(c2ccco2)c2ccc3cccnc3c2O)n1 (stereo not given) | 5.39 µM |  | > 41.7 µM
6 | CCN(Cc1ccccc1)S(=O)(=O)c1ncn[nH]1 | 3.38 µM |  | > 41.7 µM
7 | Cc1cc(NC2CCCCC2)nc(NCc2ccccc2)n1 | 4.49 µM |  | > 41.7 µM
8 | Cc1cc(C)n(-c2ccc3c(Cl)cc(Cl)c(O)c3n2)n1 | 4.79 µM |  | > 41.7 µM
9 | O=C(NCCCN1CCCC1)c1ccc(-c2ccccc2)s1 | 5.51 µM |  | > 20.8 µM
10 | C=CCN(CC=C)Cc1c(O)ccc2c(=O)c(-c3ccccc3Cl)coc12 | 5.19 µM | 5.3 µM | > 41.7 µM
11 | Cc1ccc(CN(C)C)c(O)c(=O)c1 | 5.63 µM |  | > 20.8 µM
12 | CCCc1cc(=O)[nH]c(-n2nc(C)cc2NC(=O)c2ccc(OC)c(OC)c2)n1 | 5.28 µM |  | > 41.7 µM
13 | C=CCS(=O)(=O)c1nc2ccccc2s1 | 5.73 µM |  | > 20.8 µM
14 | CSC(=S)N/N=C(\C)c1ccncn1 | 5.02 µM |  | > 4.17 µM
15 | Cc1cc(Cl)c2c(N)c(C)cc(C)c2n1 | 4.09 µM |  | > 41.7 µM
16 | CC(C)NCC(O)CC(O)(c1ccccc1)c1ccc(C(C)(C)C)cc1 (stereo not given) | 5.12 µM |  | > 20.8 µM
17 | CCN(CC)c1ccc(C(Nc2ccccn2)c2ccc3cccnc3c2O)cc1 (stereo not given) | 8.71 µM |  | > 20.8 µM
18 | Cn1c(Cc2ccccc2)nn(C2CC(=O)C3OCC2O3)c1=S (stereo not given) | 4.91 µM |  | > 41.7 µM
19 | Oc1c(C(c2ccccc2Cl)N2CCOCC2)ccc2cccnc12 (stereo not given) | 5.59 µM |  | > 20.8 µM

Row | SMILES | IC50 ([2]; Trypanosoma brucei, STIB 795) | IC50 [2] | IC50 [1]
20 | C/C(=N\NC(=O)c1cccc2ccccc12)c1ccccn1 | 2.34 µM |  | > 4.17 µM
21 | CCCCCc1ccc(-c2ccc(C(=N)N)cc2)cc1 | 5.73 µM |  | 15.5 µM
22 | CCOc1cc2c(cc1OCC)C(c1ccc(Br)cc1)NCC2 (stereo not given) | 5.55 µM |  | > 41.7 µM
23 | CCN(CC)CCn1c(=N)n(CC(=O)c2ccc(C)cc2)c2ccccc21 | 4.72 µM | 4.97 µM | > 41.7 µM
24 | CCCCc1ccc(NC(=S)NC2CC(C)(C)NC(C)(C)C2)cc1 | 2.74 µM |  | > 20.8 µM
25 | NCCc1c[nH]c2ccc(C3CCCCC3)cc12 | 1.28 µM |  | > 20.8 µM
26 | CCOC(=O)c1ccc(Nc2nnc(C(C)(C)C)c(O)n2)cc1 | 10.2 µM |  | > 41.7 µM
27 | Oc1c(C(Nc2ccccn2)c2ccccc2Cl)ccc2cccnc12 (stereo not given) | 9.28 µM |  | > 20.8 µM
28 | CC(C)Cc1nc(NCCC2CCCN2C)c2cnn(-c3ccccc3)c2n1 (stereo not given) | 2.66 µM |  | > 20.8 µM
29 | Cc1cc(NCCN2CCOCC2)c2ccc3ccccc3c2n1 | 4.87 µM |  | > 20.8 µM
30 | O=C(NC(=S)NNC(=S)N/N=C/c1ccccc1)c1ccccc1 | 4.16 µM |  | > 20.8 µM
31 | CC1CCC(C(C)C)C(OCC(O)CN2C(C)CCCC2C)C1 (stereo not given) | 3.51 µM |  | > 20.8 µM
32 | Cc1cccc(NCc2ccc(O)c3ncccc23)n1 | 4.89 µM |  | > 20.8 µM
33 | CCc1cc(C2CCCN2C(=O)c2c(F)cccc2Cl)on1 (stereo not given) | 5.12 µM |  | > 41.7 µM
34 | NC(=NOC(=O)c1cccc2ccccc12)c1ccccn1 | 3.58 µM |  | > 20.8 µM
35 | Cc1ccc(Nc2cc(C)nc3c(C)c(C)cc(N)c23)c(C)c1 | 5.12 µM |  | > 41.7 µM
36 | [O-][n+]1onc2cc(Cl)c3nonc3c21 | 5.23 µM |  | > 4.17 µM
37 | COc1cc2nc(-c3cccnc3)nc(N3CCC[C@H]3CO)c2cc1OC | 5.31 µM |  | > 20.8 µM
38 | CC(NCCC(c1ccccc1)C1CCOC(C)(C)C1)c1ccccc1 (stereo not given) | 4.93 µM |  | > 41.7 µM

Row | SMILES | IC50 ([2]; Trypanosoma brucei, STIB 795) | IC50 [2] | IC50 [1]
39 | O=C(Nc1c2ccccc2nc2ccccc12)c1ccccc1F | 5.31 µM |  | > 4.17 µM
40 | CC1=CC(C)(C)N=C(Nc2nc(C)c3cc(C)cc(C)c3n2)N1 | 3.73 µM |  | 5.93 µM
41 | Cc1cc(C)[n+]2nc3n(-c4ccccc4)c(C)cc(C)c-3c2n1 | 4.46 µM |  | > 41.7 µM
42 | CCn1c(=N)n(CCCOc2ccc(F)cc2)c2ccccc21 | 5.46 µM |  | > 20.8 µM
43 | CCOC(=O)C(=Cc1cc(=O)c(OC)co1)C(=O)OCC | 5.5 µM |  | > 20.8 µM
44 | Cc1conc1NC(c1cccs1)c1ccc2cccnc2c1O (stereo not given) | 5.74 µM |  | > 20.8 µM
45 | CCc1ccccc1-n1c(=O)oc2ccc(Cl)cc2c1=O | 5.13 µM |  | > 4.17 µM
46 | C/C(=C\c1ccccc1)c1nc2c(=O)n(C)c(=O)nc-2n(C)n1 | 5.62 µM |  | > 20.8 µM
47 | COc1ccc(/C=N/NC(=O)C(OC)c2ccccc2)c(OC)c1OC (stereo not given) | 2.27 µM |  | > 4.17 µM
48 | CC(C)CC(=O)/C(=C/c1ccc(Cl)cc1Cl)n1cncn1 | 2.27 µM |  | > 20.8 µM
49 | O=C(CN1CCN(c2ccc(Cl)cc2)CC1)c1ccc(O)c(O)c1 | 3.04 µM |  | > 41.7 µM
50 | COc1ccc(NCC2COc3ccccc3C2=O)cc1 (stereo not given) | 4.91 µM |  | > 41.7 µM
51 | CCN(CC)c1ccc(C2N(C)c3ccccc3N2C)cc1 | 2.49 µM |  | > 41.7 µM
52 | O=C1CC(Sc2nc(-c3ccco3)cc(C(F)(F)F)n2)C2COC1O2 (stereo not given) |  | 12 µM and 5.11 µM | > 20.8 µM
53 | CC[N+]1=C(/C=C/N(C)C)c2cccc3cccc1c23 | 3.41 µM |  | > 20.8 µM
54 | COc1ccc2c(C)cc(Sc3cccc4cccnc34)nc2c1 | 5.58 µM |  | > 41.7 µM
55 | CCCCn1c(=N)n(CC(O)c2ccc(Br)cc2)c2ccccc21 (stereo not given) | 5.24 µM | 5.32 µM | > 20.8 µM
56 | O=C(NO)c1sc2ccccc2c1Cl | 3.76 µM |  | > 41.7 µM
57 | NC1c2ccccc2CC1Cc1ccc(Cl)cc1Cl (stereo not given) | 5.23 µM |  | > 20.8 µM

More lines, main results first:

Row | IC50 ([2]; Trypanosoma brucei, STIB 795) | IC50 [2] | SMILES | IC50 [1]
58 | 1.94 µM |  | CCCn1c(=N)n(CC(O)COc2ccc(Cl)cc2Cl)c2ccccc21 (stereo not given) | 8.79 µM
59 | 0.927 µM |  | CCOC(=O)c1nc[nH]c1/N=N/c1ccc(O)c2ccccc12 | 3.83 µM
60 | 0.718 µM |  | c1ccc(Nc2nc(-c3ccccn3)cs2)nc1 | > 10.4 µM
61 | 1.15 µM |  | CC(=O)NC1=C(Br)C(=O)c2cccc(NC(C)=O)c2C1=O | 7.49 µM
62 | 0.483 µM |  | C=CCN1C(=O)C(O)(CC(=O)c2ccco2)c2cc(Br)ccc21 (stereo not given) | > 41.7 µM
63 | 1.6 µM |  | O=C1/C(=C\c2ccccc2F)COC/C1=C\c1ccccc1F | > 41.7 µM
64 | 1.82 µM |  | CN(C)CCCNc1c2c(nc3ccccc13)CCC2 | 5.76 µM
65 | 1.92 µM |  | C/C(=N\NC(=O)c1cccc(I)c1)c1ccc(O)cc1O | 3.73 µM
66 | 0.317 µM |  | CCN1C(C)=C(C)S/C1=C\c1ccc2cc(C)ccc2[n+]1C | > 4.17 µM
67 | 0.425 µM |  | CCn1ccnc1-c1cccc(-c2ccccn2)n1 | > 1.04 µM
68 | 0.038 µM |  | CN(C)c1ccc(/C=C/c2cc[n+](C)c3ccccc23)cc1 | > 2.08 µM
69 | 0.617 µM |  | CCCN1C(=O)C(O)(CC(=O)c2cccnc2)c2cc(Br)ccc21 (stereo not given) | > 41.7 µM
70 | 0.327 µM |  | Fc1ccc(C(=CCCn2ccnc2)c2ccc(F)cc2)cc1 | 7.02 µM
71 | 0.357 µM |  | CN1CCN(Nc2ccnc3cc4ccccc4cc23)CC1 | 3.36 µM
72 | 1.49 µM |  | NCCc1c(-c2ccccc2)n(-c2ccccc2)c2ccccc12 | > 20.8 µM
73 | 0.362 µM |  | CCCC[n+]1c(/C=C2/C=CN(CC)c3ccc(C)cc32)ccc2ccccc21 | > 4.17 µM
74 | 0.503 µM |  | CCOC(=O)/C=C\n1nnc2ccccc21 | > 41.7 µM
75 | 0.808 µM |  | CC(C)/C(N)=N/OC(=O)c1ccc(I)cc1 | > 41.7 µM
76 | < 0.04 µM |  | CCn1c2cccc(=O)c-2nc2ccccc21 | > 20.8 µM
77 | 0.524 µM |  | CCN1/C(=C/C(=C/c2sc3ccccc3[n+]2CC)OC)Sc2ccccc21 | 2.25 µM

Row | IC50 ([2]; Trypanosoma brucei, STIB 795) | IC50 [2] | SMILES | IC50 [1]
78 | 0.253 µM |  | CN1/C(=C/C=C/c2oc3ccccc3[n+]2C)Oc2ccccc21 | > 2.08 µM
79 | 0.403 µM |  | CCC(/C=C1\Sc2ccccc2N1C)=C\c1sc2ccccc2[n+]1C | 2.28 µM
80 | 1.1 µM |  | Oc1c(Br)cc(CN2CCOCC2)c2cccnc12 | > 20.8 µM
81 | 1.74 µM |  | O=C(NNC(=O)c1ccccn1)c1cccc(Br)c1 | > 4.17 µM
82 | 0.125 µM |  | N/C(Cc1cccs1)=N\OC(=O)C12CC3CC(CC(C3)C1)C2 | > 20.8 µM
83 | 0.239 µM |  | NCCNCCOC(c1ccc(Cl)cc1)c1ccc(Cl)cc1 | 5.61 µM
84 | 0.416 µM |  | CC[n+]1c(/C=C2\SC=C(c3ccccc3)N2C)ccc2cc(C)ccc21 | > 10.4 µM
85 | 0.989 µM |  | CN(C)C(=S)N/N=C1\Cc2ccccc2C1=O | > 20.8 µM
86 | 1.31 µM |  | CC1=NN(c2ccc3cccc(O)c3n2)C(=O)C1 | > 10.4 µM
87 | 1.54 µM |  | CC(C)NCC(O)COc1cc2ccsc2c2ccccc12 (stereo not given) | 7.53 µM
88 | 0.931 µM |  | O=C(CC1(O)C(=O)Nc2ccc(I)cc21)c1cccs1 (stereo not given) | > 41.7 µM
89 | 0.881 µM |  | Cc1ccccc1C(=O)O/N=C(\N)c1ccccc1 | > 20.8 µM
90 | 1.42 µM |  | NC(N)=N/N=C1/C(=O)Nc2ccc(F)cc21 | > 41.7 µM
91 | 0.851 µM |  | CCCC(=O)Nc1ccc(Cl)c(-c2nc3ncccc3o2)c1 | > 41.7 µM
92 | 1.84 µM |  | COc1ccc(C(=N)NOC(=O)c2cccs2)cc1 | > 41.7 µM
93 | 1.4 µM |  | O=C(CSc1cccc2cccnc12)c1ccc(Cl)cc1Cl | > 41.7 µM
94 | < 0.004 µM |  | Cc1cccc2ccc(/C=C/c3ccc(N(C)C)cc3)[n+](C)c12 | > 4.17 µM
95 | 0.68 µM |  | CN(C)c1ccc(/C=C/c2cc(-c3ccccc3)n(-c3ccccc3)[n+]2C)cc1 | > 20.8 µM
96 | 0.485 µM |  | CC(C)(C)c1cc(/C=N/Nc2nc3ccccc3[nH]2)cc(C(C)(C)C)c1O | > 20.8 µM
